Measurements taken from the supplement of paper PMC10307832.

Experiments:
Assay in all cases: relative viability (nuclei count vs DMSO), 5 days (fraction); higher = more cells survive
[1] = compound: O[C@H]1CC[C@H](Nc2ncc3nc(Nc4c(F)cc(F)cc4F)n([C@H]4CCOC4)c3n2)CC1 [Tanzisertib] + CC(=O)c1c(C)c2cnc(Nc3ccc(N4CCNCC4)cn3)nc2n(C2CCCC2)c1=O [Palbociclib] (partner 0.5 µM)
Outline: (§1)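 Relative viability equals treated-well nuclei counts divided by vehicle-well nuclei counts. Counts came from 4× images of lung cancer cell lines grown in 1536-well plates for 5 days after pin-tool dosing on the day after seeding. Dosing used one drug alone or a fixed anchor-drug dose plus five library-drug doses (not always all listed) in √10 steps, and values are medians of duplicate plates.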

[2] = compound: C1CNCCC1C2=CC(=NN2)C3=CC=NC=C3 + Cc1cc(Nc2cc(N3CCN(C)CC3)nc(Sc3ccc(NC(=O)C4CC4)cc3)n2)n[nH]1 [Tozasertib] (partner 0.1 µM)
Outline: as §1

[3] = compound: C1CNCCC1C2=CC(=NN2)C3=CC=NC=C3 + COc1cccc2cc(-c3nc([C@H]4CC[C@H](C(=O)O)CC4)n4ncnc(N)c34)[nH]c12 [OSI-027] (partner 0.5 µM)
Outline: as §1

[4] = compound: C[C@@H](N)c1ccc(C(=O)Nc2ccnc3[nH]ccc23)cc1 + N=C(N)NC(=N)NCCc1ccccc1 [Phenformin] (partner 250 µM)
Outline: as §1

In the case of UMC-11, the relative viability ([1]; first compound 0.08 µM) is reported as 0.346, the relative viability ([1]; first compound 0.253 µM) is reported as 0.285 and the relative viability ([1]; first compound 0.8 µM) is reported as 0.319. For the same cell line, the relative viability ([1]; first compound 2.53 µM) was 0.325, the relative viability ([1]; first compound 8 µM) was 0.355 and the relative viability ([2]; first compound 0.08 µM) was 0.196. The relative viability ([2]; first compound 0.8 µM) was 0.214, the relative viability ([2]; first compound 2.53 µM) was 0.205 and the relative viability ([2]; first compound 8 µM) was 0.207. For the same cell line, the relative viability ([3]; first compound 0.08 µM) was 0.452, the relative viability ([3]; first compound 0.8 µM) was 0.537 and the relative viability ([3]; first compound 2.53 µM) was 0.459. For the same cell line, the relative viability ([3]; first compound 8 µM) was 0.553, the relative viability ([4]; first compound 0.04 µM) was 0.268 and the relative viability ([4]; first compound 0.1265 µM) was 0.358. It also gave a relative viability ([4]; first compound 0.4 µM) of 0.354, a relative viability ([4]; first compound 1.265 µM) of 0.228 and a relative viability ([4]; first compound 4 µM) of 0.234.
